The assay addresses T1, HIV-1 reverse transcriptase (Human immunodeficiency virus type 1 group M subtype B, UniProt P04585).
T1 construct: purified recombinant HIV-1 reverse transcriptase (RT, EC, 2.7.7.49); made in house; host or cells: Escherichia coli
The experiment in a line: Inhibition of HIV-1 Reverse Transcriptase Enzyme. It counts as biochemical. Particulars: purified recombinant HIV-1 RT expressed in Escherichia Coli; [3H]-SPA or [3H]-flashplate enzyme assay; 5% final DMSO. The source says: The activity of the compounds of the invention as reverse transcriptase inhibitors may be measured using the following assay.
Inhibition of HIV-1 Reverse Transcriptase Enzyme
Using purified recombinant HIV-1 reverse transcriptase (RT, EC, 2.7.7.49) obtained by expression in Escherichia Coli, a 96-well plate assay system is established for assaying a large number of samples using either the Poly(rA)-oligo(dT) Reverse Transcriptase [3H]-SPA enzyme assay system (Amersham NK9020) or the [3H]-flashplate enzyme assay system (NEN-SMP 103) and following the manufacturer's recommendations. The compounds are dissolved in 100% DMSO and diluted with the appropriate buffer to a 5% final DMSO concentration. The inhibitory activity is expressed in percent inhibition relative to DMSO control.

This passage reports IC50 results from US7157468B2, “Pyrazole derivatives” (Pfizer Inc., priority 2002, dated 2007).

One may read the IC50 as the concentration that gives 50% inhibition.

Regarding `Cc1n[nH]c(CC(=O)N2CCc3ccccc3C2)c1Oc1cc(Cl)cc(C#N)c1` [Example 17], the IC50 was found to be 64 nM.

As for `Cc1n[nH]c(CC(=O)N2CCc3ccccc3C2)c1Oc1cc(Cl)cc(Cl)c1` [Example 8, 2-[4-(3,5-Dichloro-phenoxy)-5-methyl-2H-pyrazol-3-yl]-1-(3,4-dihydro-1H-isoquinolin-2-yl)-ethanone], the half-maximal inhibitory concentration (IC50) worked out at 10 nM.
